Laboratory results as given in article PMC5431432, “Low-basicity 5-HT7 Receptor Agonists Synthesized Using the van Leusen Multicomponent Protocol” (Scientific Reports, 2017).
Entries after “also recorded” stand apart in the source; their conditions may differ. Like-named read-outs stand apart in the source and are kept apart here. Blank lines part the entries; values can stand above or below the molecule they belong to.

How the values were obtained:
human dopamine D2LR = human dopamine D2LR (Homo sapiens, UniProt P14416); assay: Radioligand binding, [3H]-raclopride displacement
[1] = molecular target: T1, human serotonin 5-HT2A receptor (Homo sapiens, UniProt P28223); assay: Radioligand binding, [3H]-ketanserin displacement
T1 construct: host or cells: CHO-K1

human serotonin 5-HT7bR = human serotonin 5-HT7bR (Homo sapiens, UniProt P34969); assay: Radioligand binding, [3H]-5-CT displacement
human serotonin 5-HT6R = human serotonin 5-HT6R (Homo sapiens, UniProt P50406); assay: Radioligand binding, [3H]-LSD displacement
human serotonin 5-HT1AR = molecular target: T2, human serotonin 5-HT1AR (Homo sapiens, UniProt P08908); assay: Radioligand binding, [3H]-8-OH-DPAT displacement
T2 sequence (P08908 1-422): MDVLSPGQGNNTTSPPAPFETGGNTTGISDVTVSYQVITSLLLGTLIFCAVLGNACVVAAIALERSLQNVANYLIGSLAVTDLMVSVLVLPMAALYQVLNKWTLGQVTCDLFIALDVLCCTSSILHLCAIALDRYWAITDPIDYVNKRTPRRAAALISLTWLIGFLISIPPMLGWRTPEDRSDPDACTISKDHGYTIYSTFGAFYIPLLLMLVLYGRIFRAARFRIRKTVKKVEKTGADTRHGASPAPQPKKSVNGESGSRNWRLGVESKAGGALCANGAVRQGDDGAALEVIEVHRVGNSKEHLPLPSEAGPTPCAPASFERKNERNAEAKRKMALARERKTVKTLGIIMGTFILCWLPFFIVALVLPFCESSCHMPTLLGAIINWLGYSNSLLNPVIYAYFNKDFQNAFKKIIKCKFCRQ

human 5-HT7 receptor = human 5-HT7 receptor (Homo sapiens, UniProt P34969); assay: Functional assay, cAMP production (TR-FRET) in HEK293 cells overexpressing 5-HT7R; format: cell-based; details: for EC50: hydrochloride salts
5-HT1B = molecular target: T3, 5-HT1B (Homo sapiens, UniProt P28222); assay: Eurofins Cerep binding screen 5-HT1B; details: 10^−6 M; read-out: % Inhibition of control binding 5-HT1B
T3 construct: Eurofins Cerep (contract screen)

CYP3A4 = CYP3A4 (Homo sapiens, UniProt P08684); assay: biochemical
[2] = tested on: MK-801 induced impairment in novel object recognition; assay: Novel object recognition test, reversal of MK-801 induced impairment; design: species or system Albino Swiss mice; details: mouse, in vivo
[3] = Metabolic stability in human liver microsomes; format: in vitro ADME; details: human, read-out: Clint, metabolic clearance
[4] = Water solubility (statement); format: physicochemical
HEK-293 cells = assay: MTS cytotoxicity assay HEK-293; format: cell-based, human; details: 72 h incubation, 0.1–100 μM
5-HT5A = molecular target: T4, 5-HT5A (Homo sapiens, UniProt P47898); assay: Eurofins Cerep binding screen 5-HT5A; details: 10^−6 M; read-out: % Inhibition of control binding 5-HT5A
T4 construct: Eurofins Cerep (contract screen)

[5] = Pharmacokinetics after i.p. administration in mice; format: in vivo, CD-1 mice
5-HT2B = molecular target: T5, 5-HT2B (Homo sapiens, UniProt P41595); assay: Eurofins Cerep binding screen 5-HT2B; details: read-out: % Inhibition of control binding 5-HT2B
T5 construct: Eurofins Cerep (contract screen)

HepG2 cells = assay: MTS cytotoxicity assay HepG2; format: cell-based; details: 72 h incubation, 0.1–100 μM
[6] = Fig. 2, read-out: pKi D2 (converted)
[7] = Fig. 2, read-out: pKi 5-HT2A (converted)
[8] = Fig. 2, read-out: pKi 5-HT6 (converted)
[9] = Fig. 2, read-out: pKi 5-HT1A (converted)
[10] = Fig. 2, read-out: pKi 5-HT7 (converted)

human dopamine D2LR, sequence (P14416 whole entry): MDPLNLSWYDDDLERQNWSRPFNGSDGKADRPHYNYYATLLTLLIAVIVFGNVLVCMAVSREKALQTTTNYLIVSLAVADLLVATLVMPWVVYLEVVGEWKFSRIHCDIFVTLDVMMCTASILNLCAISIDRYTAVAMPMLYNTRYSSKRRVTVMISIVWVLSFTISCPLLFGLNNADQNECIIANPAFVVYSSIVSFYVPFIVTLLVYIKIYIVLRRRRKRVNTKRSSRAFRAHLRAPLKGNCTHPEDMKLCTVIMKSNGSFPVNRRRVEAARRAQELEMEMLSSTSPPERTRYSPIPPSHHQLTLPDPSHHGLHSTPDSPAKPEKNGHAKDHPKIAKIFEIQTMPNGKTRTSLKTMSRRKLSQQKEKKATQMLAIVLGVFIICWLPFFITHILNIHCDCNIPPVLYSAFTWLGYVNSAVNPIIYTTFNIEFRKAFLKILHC
human serotonin 5-HT6R, sequence (P50406 whole entry): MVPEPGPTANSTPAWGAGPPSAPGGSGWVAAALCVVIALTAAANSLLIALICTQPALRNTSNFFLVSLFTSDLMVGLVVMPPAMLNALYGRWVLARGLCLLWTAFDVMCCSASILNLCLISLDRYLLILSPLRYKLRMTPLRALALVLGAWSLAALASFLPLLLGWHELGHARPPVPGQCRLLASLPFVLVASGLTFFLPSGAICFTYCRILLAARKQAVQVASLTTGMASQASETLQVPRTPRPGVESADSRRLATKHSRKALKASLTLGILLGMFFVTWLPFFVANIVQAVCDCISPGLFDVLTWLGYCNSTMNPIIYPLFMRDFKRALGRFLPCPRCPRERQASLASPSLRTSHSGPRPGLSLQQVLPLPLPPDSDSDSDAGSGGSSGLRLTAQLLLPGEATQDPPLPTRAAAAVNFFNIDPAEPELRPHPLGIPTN
human 5-HT7 receptor, sequence (P34969 1-432 limits assumed): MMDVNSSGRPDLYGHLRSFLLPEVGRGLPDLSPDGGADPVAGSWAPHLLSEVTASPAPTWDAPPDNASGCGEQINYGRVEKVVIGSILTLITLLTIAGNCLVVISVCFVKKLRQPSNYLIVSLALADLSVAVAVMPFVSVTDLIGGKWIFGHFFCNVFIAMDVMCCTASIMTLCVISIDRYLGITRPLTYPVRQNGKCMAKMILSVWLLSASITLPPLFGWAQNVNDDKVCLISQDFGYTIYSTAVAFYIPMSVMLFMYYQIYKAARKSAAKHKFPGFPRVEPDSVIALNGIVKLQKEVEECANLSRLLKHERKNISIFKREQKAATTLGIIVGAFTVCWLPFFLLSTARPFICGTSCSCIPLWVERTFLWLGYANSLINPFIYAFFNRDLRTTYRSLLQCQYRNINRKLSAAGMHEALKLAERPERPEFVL
human serotonin 5-HT7bR, sequence (P34969 1-432 limits assumed): as above
T1 sequence (P28223 whole entry): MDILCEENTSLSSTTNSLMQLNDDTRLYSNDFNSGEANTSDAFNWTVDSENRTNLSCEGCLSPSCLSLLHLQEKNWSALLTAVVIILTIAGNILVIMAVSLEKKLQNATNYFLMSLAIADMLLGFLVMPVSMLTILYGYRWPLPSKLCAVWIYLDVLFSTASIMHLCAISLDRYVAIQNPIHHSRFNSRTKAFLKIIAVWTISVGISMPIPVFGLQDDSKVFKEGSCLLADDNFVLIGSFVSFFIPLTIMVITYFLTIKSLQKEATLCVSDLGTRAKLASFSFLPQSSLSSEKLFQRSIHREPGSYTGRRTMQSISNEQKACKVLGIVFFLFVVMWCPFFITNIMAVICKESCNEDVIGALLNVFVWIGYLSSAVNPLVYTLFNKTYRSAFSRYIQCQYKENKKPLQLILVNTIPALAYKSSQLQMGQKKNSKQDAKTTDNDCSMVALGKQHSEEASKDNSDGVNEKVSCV
T5 sequence (P41595 whole entry, species assumed): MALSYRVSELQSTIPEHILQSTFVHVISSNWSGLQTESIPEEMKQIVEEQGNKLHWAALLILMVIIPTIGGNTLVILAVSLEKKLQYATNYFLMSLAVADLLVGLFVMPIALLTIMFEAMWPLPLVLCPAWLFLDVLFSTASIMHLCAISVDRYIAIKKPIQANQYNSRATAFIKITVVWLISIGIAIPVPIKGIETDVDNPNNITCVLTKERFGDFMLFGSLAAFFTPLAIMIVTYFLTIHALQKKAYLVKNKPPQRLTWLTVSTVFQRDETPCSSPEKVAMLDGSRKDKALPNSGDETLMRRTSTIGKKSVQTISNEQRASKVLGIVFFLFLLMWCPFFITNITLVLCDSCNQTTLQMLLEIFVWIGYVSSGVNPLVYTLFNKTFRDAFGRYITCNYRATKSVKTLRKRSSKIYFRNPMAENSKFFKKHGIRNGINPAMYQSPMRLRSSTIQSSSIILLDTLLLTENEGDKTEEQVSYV
T3 sequence (P28222 whole entry, species assumed): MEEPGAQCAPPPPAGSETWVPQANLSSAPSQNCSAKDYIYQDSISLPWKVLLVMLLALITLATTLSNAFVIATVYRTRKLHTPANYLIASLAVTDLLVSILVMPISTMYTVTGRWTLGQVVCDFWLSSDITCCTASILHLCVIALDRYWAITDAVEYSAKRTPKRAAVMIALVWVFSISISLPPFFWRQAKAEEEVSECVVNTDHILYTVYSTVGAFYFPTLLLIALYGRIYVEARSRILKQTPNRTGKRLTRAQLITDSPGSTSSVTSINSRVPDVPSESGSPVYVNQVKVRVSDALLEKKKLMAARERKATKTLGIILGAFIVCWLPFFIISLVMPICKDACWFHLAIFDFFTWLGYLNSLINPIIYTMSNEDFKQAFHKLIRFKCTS
T4 sequence (P47898 whole entry, species assumed): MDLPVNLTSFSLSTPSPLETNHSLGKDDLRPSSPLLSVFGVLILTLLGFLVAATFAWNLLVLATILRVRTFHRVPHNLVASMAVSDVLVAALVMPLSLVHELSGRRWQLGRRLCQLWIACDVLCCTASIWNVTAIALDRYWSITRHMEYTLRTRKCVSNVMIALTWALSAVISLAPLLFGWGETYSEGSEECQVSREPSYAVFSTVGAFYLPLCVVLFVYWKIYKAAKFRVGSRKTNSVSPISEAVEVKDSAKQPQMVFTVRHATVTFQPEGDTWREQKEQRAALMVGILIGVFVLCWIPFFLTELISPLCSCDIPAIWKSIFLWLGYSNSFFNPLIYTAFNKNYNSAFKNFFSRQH
CYP3A4, sequence (P08684 whole entry): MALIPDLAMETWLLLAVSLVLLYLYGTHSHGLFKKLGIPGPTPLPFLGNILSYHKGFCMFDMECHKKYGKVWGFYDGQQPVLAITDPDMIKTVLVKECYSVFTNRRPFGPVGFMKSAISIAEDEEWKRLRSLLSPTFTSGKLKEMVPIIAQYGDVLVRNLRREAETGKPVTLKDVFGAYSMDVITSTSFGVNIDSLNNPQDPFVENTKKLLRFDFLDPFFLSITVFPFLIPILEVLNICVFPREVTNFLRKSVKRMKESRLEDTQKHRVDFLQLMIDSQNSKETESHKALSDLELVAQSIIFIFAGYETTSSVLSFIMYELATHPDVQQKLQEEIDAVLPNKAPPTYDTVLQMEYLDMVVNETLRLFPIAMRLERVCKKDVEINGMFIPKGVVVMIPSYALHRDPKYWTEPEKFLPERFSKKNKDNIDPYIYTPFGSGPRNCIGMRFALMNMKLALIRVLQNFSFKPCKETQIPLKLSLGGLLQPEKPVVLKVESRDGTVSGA

SMILES: Cn1cc(CCN)c2ccccc21 [1-methyltryptamine, reference compound]
- Ki (human dopamine D2LR): 6.54 µM
- Ki [1]: 6.59 µM
- Ki (human serotonin 5-HT7bR): 4830 nM
- Ki (human serotonin 5-HT6R): 3.62 µM
- Ki (human serotonin 5-HT1AR): 2390 nM

SMILES: Cn1cncc1-c1c[nH]c2ccccc12 [1a]
- melting point: 88 to 90 °C
- Ki (human dopamine D2LR; [6]): 6.92 µM
- Ki [1, 7]: 6.92 µM
- selectivity over 5-HT1AR (human serotonin 5-HT7bR): > 11 fold
- Ki (human serotonin 5-HT7bR; read-out: Ki 5-HT7): 385 nM
- Ki (human serotonin 5-HT6R; [8]): 3.39 µM
- Ki (human serotonin 5-HT1AR; [9]): 4470 nM

SMILES: COc1ccc2[nH]cc(-c3cncn3C)c2c1 [1b]
- function at the human 5-HT7 receptor (human 5-HT7 receptor): full agonists
- EC50 (human 5-HT7 receptor): 150 nM
- melting point: 236 °C
- Ki (human dopamine D2LR; [6]): > 10 µM
- Ki [1, 7]: 3.39 µM
- selectivity over 5-HT1AR (human serotonin 5-HT7bR): > 11 fold
- Ki (human serotonin 5-HT7bR; Table 1, the head of this column prints no unit, nM, read-out: K i (5-HT7R)): 55 nM
- Ki (human serotonin 5-HT6R; [8]): 2.4 µM
- Ki (human serotonin 5-HT1AR; [9]): 851 nM

- Ki (human dopamine D2LR; [6]): > 10 µM
- Ki [1, 7]: > 10 µM
- Ki (human serotonin 5-HT7bR; read-out: Ki 5-HT7): 5620 nM
- Ki (human serotonin 5-HT6R; [8]): 7.76 µM
- Ki (human serotonin 5-HT1AR; [9]): > 10000 nM
SMILES: CCn1cncc1-c1cn(C)c2ccccc12 [1c]

- Ki (human dopamine D2LR; [6]): > 10 µM
- Ki [1, 7]: > 10 µM
- Ki (human serotonin 5-HT7bR; read-out: Ki 5-HT7): > 10000 nM
- Ki (human serotonin 5-HT6R; [8]): 5.5 µM
- Ki (human serotonin 5-HT1AR; [9]): 5010 nM
SMILES: CCn1cncc1-c1cn(C)c2ccc(OC)cc12 [1d]

- Ki (human dopamine D2LR; [6]): > 10 µM
- Ki [1, 7]: 4.27 µM
- Ki (human serotonin 5-HT7bR; [10]): 64.6 nM
- Ki (human serotonin 5-HT6R; [8]): > 10 µM
- Ki (human serotonin 5-HT1AR; [9]): > 10000 nM
SMILES: CCCn1cncc1-c1c[nH]c2ccc(OC)cc12 [1f]

- Ki (human dopamine D2LR; [6]): > 10 µM
- Ki [1, 7]: 6.17 µM
- Ki (human serotonin 5-HT7bR; [10]): 324 nM
- Ki (human serotonin 5-HT6R; [8]): 5.89 µM
- Ki (human serotonin 5-HT1AR; [9]): 661 nM
SMILES: CCCCn1cncc1-c1c[nH]c2ccc(OC)cc12 [1g]

SMILES: COc1ccc2[nH]cc(-c3cncn3C3CC3)c2c1 [1h]
- Ki (human dopamine D2LR; [6]): > 10 µM
- Ki [1, 7]: > 10 µM
- binding to 5-HT7R in words (human serotonin 5-HT7bR): non-active
- Ki (human serotonin 5-HT7bR; [10]): 3310 nM
- Ki (human serotonin 5-HT6R; [8]): 5.25 µM
- Ki (human serotonin 5-HT1AR; [9]): 1290 nM

- Ki (human dopamine D2LR; [6]): > 10 µM
- Ki [1, 7]: > 10 µM
- Ki (human serotonin 5-HT7bR; [10]): 135 nM
- Ki (human serotonin 5-HT6R; [8]): 5.75 µM
- Ki (human serotonin 5-HT1AR; [9]): 537 nM
SMILES: C=CCn1cncc1-c1c[nH]c2ccc(OC)cc12 [1i]

SMILES: CCn1cncc1-c1c[nH]c2cc(Br)ccc12 [1j]
- Ki (human dopamine D2LR; [6]): > 10 µM
- Ki [1, 7]: > 10 µM
- binding to 5-HT7R in words (human serotonin 5-HT7bR): low affinity
- Ki (human serotonin 5-HT7bR; [10]): > 10000 nM
- Ki (human serotonin 5-HT6R; [8]): 6.92 µM
- Ki (human serotonin 5-HT1AR; [9]): > 10000 nM

SMILES: CCn1cncc1-c1c[nH]c2cccc(Br)c12 [1k]
- Ki (human dopamine D2LR; [6]): > 10 µM
- Ki [1, 7]: > 10 µM
- binding to 5-HT7R in words (human serotonin 5-HT7bR): low affinity
- Ki (human serotonin 5-HT7bR; [10]): 2290 nM
- Ki (human serotonin 5-HT6R; [8]): 8.71 µM
- Ki (human serotonin 5-HT1AR; [9]): > 10000 nM

SMILES: CCn1cncc1-c1c[nH]c2ccc(F)cc12 [1l]
- Ki (human serotonin 5-HT7bR; read-out: Ki 5-HT7): 302 nM

SMILES: CCn1cncc1-c1c[nH]c2ccc(Cl)cc12 [1m]
- function at the human 5-HT7 receptor (human 5-HT7 receptor): full agonists
- EC50 (human 5-HT7 receptor): 149 nM
- Ki (human serotonin 5-HT7bR; read-out: K i (5-HT7R)): 42 nM

SMILES: CCn1cncc1-c1c[nH]c2ccc(Br)cc12 [1n]
- function at the human 5-HT7 receptor (human 5-HT7 receptor): full agonists
- EC50 (human 5-HT7 receptor): 154 nM
- Ki (human serotonin 5-HT7bR; read-out: K i (5-HT7R)): 20 nM

SMILES: CCn1cncc1-c1c[nH]c2ccc(I)cc12 [1o, 3-(1-ethyl-1H-imidazol-5-yl)-5-iodo-1H-indole]
- inhibition at 1 µM (5-HT1B): 40%
- IC50 (CYP3A4): 170 nM
- reversal of MK-801 induced disruption in novel object recognition [2]: active; also recorded: dose-dependently reversed MK-801-induced disruption in novel object recognition; also recorded: reversed MK-801 induced novel object recognition impairment
- CLint scaled at 50 μM [3]: 6.3 mL/min/kg
- function at the human 5-HT7 receptor (human 5-HT7 receptor): full agonists
- EC50 (human 5-HT7 receptor): 19 nM
- water solubility in words [4]: water soluble
- cell viability in words, HEK-293 (HEK-293 cells): toxic for the cells only in the highest concentration (100 μM)
- inhibition at 1 µM (5-HT5A): 7%
- selectivity over 5-HT1AR (human serotonin 5-HT7bR): 176 fold
- Ki (human serotonin 5-HT7bR; read-out: K i (5-HT7R)): 6 nM
- blood/plasma ratio compared to LP-44 ([5]; 1o 5 mg/kg i.p. vs LP-44 10 mg/kg i.p.): three-fold higher
- brain/plasma ratio compared to LP-211 ([5]; 1o 5 mg/kg i.p. vs LP-211 10 mg/kg i.p.): 9 times
- Cmax brain ([5]; i.p. 5 mg/kg): 2723 ng/g
- Cmax brain (molar) ([5]; i.p. 5 mg/kg): approx. 8 μM
- maximum plasma concentration ([5]; i.p. 5 mg/kg): 749 ng/mL
- maximum plasma concentration (molar) ([5]; i.p. 5 mg/kg): ~ 2.2 μM
- time in which half of the compound was eliminated from the body ([5]; i.p. 5 mg/kg): ≤ 90 min
- t0.5 brain ([5]; i.p. 5 mg/kg, brain): 130 min
- last sampling time at which measurable ([5]; i.p. 5 mg/kg, plasma and brain): 6 h
- MRT ([5]; male, CD-1, mouse, brain, ip, i.p. 5 mg/kg, read-out: MRT brain (converted)): 60 min
- Kp ([5]; male, CD-1, mouse, brain/plasma, ip, i.p. 5 mg/kg, read-out: brain to plasma ratio): 6.34
- Tmax ([5]; male, CD-1, mouse, ip, i.p. 5 mg/kg, plasma): 15 min
- Vd/F ([5]; male, CD-1, mouse, plasma, ip, i.p. 5 mg/kg): 46.6 L/kg
- MRT ([5]; male, CD-1, mouse, plasma, ip, i.p. 5 mg/kg, read-out: MRT plasma (converted)): 27 min
- inhibition at 1 µM (5-HT2B; 10^−6 M (1 µM)): 87%
- inhibition at 0.01 µM (5-HT2B; 10^−8 M (10 nM)): 7%
- cell viability in words, HepG2 (HepG2 cells): toxic for the cells only in the highest concentration (100 μM)

- Ki (human dopamine D2LR; [6]): > 10 µM
- Ki [1, 7]: > 10 µM
- Ki (human serotonin 5-HT7bR; [10]): 2510 nM
- Ki (human serotonin 5-HT6R; [8]): > 10 µM
- Ki (human serotonin 5-HT1AR; [9]): > 10000 nM
SMILES: CCn1cncc1-c1c[nH]c2ccc(C#N)cc12 [1p]
